Test results taken from patent publication US11766470B2, “Manufacture, formulation and dosing of apraglutide” (VectivBio AG, priority 2020, dated 2023).
Square brackets hold non-standard residues; d marks the D form. Peptide text beside a SMILES is read from it. ξ: configuration not given here. Ile(3ξ) = CCC(C)[C@H](N)C(=O)O; Thr(3ξ) = CC(O)[C@H](N)C(=O)O; Nle = CCCC[C@H](N)C(=O)O

Key:
[1] = MCP-MOD dose-response analysis of citrulline (week 6) in healthy volunteers (Example 7); set-up: species or system human; settings: for MCP step, estimate of the difference: citrulline week 6
Excerpt: The MCP-MOD procedure was applied. This statistical methodology consisted of 2 steps: the multiple comparisons step and the modelling step. The first step of the procedure (MCP) is used to test for a significant dose response by assessing pre-specified candidate models. Once a dose response has been established, the second step (MOD) is used to estimate a dose-response curve and estimation of target doses of interest. Five candidate models were specified:
Linear model with maximum effect for the 10 mg dose
Log-linear model with maximum effect for the 10 mg dose
Dose that induces maximum effect (Emax) model with ED50 of 5 mg
Sigmoidal Emax model with ED50 of 1 mg and hill coefficient (HILL) of 2
Sigmoidal Emax model with ED50 of 5 mg and HILL of 5
A subset of the citrulline data was made with the average pre-value and day 35 to 42=week 6 data. The coefficients were implemented in the mixed model analysis of variance with fixed factors treatment, time and treatment by time, random factor subject, and the average prevalue as covariate. The average pre-value was calculated from all pre-values after screening and before dosing.
The following contrasts are calculated within the model:
For all pharmacodynamic endpoints (citrulline, Bristol stool scale and weight), the pre-value has been used as covariate. The average pre-value was calculated from all pre-values after screening and before dosing, except for the Bristol stool scale, where the screening value was also used to calculate the average baseline. The average pre-value of citrulline was also used as covariate in the MCP-MOD, except in the Sigmoid Emax model. This was addressed by subtracting the pre-value times the slope of the linear model of the MCP part from the values of week 6.

healthy adult volunteers = assay: Safety in multiple dose study in healthy volunteers; format: in vivo, human; settings: 1, 5 or 10 mg, 6 weekly SC doses
Protocol: The pharmacokinetic/pharmacodynamic (PK/PD) relationship between apraglutide, a novel long-acting GLP-2 analog in development for short bowel syndrome, and citrulline was evaluated in a randomized, double-blind, parallel arm, placebo-controlled, multiple dose study. 23 healthy adult volunteers received 6 weekly subcutaneous doses of apraglutide (1, 5, or 10 mg) or placebo and were followed for a further 6 weeks after the last dose. Blood collections were controlled for diet, lifestyle, and diurnal effects.

patients with SBS-IF = assay: Safety assessments (adverse events) in Phase 2 SBS-IF trial (Example 5)
Protocol: In Part A, patients were treated with 5 mg apraglutide or placebo once weekly for 4 weeks. After a washout period of 6-10 weeks, the alternate treatment was given. Part A was followed by a second washout period of 6-10 weeks before patients entered Part B. Part B was an open-label dosing regimen with 10 mg apraglutide given once weekly for 4 weeks. The additional open-label treatment period (Part B) was included to investigate the safety and tolerability of 10 mg dosing. The procedures during each treatment period were consistent. The trial drug was provided as a freeze-dried powder for reconstitution and was administered as subcutaneous injections in the abdominal area.
Safety assessments were performed for each treatment period and included observation for injection site reactions, vital signs, blood samples, electrocardiogram (ECG), dipstick urinalysis, body weight and liver enzymes. […] Additionally, liver enzymes were measured prior to each drug administration.

[2] = whole trial, incl. placebo periods

CCCC[C@H](NC(=O)[C@H](CCC(=O)O)NC(=O)[C@H](CC(=O)O)NC(=O)[C@H](CO)NC(=O)[C@H](Cc1ccccc1)NC(=O)[C@H](CO)NC(=O)CNC(=O)[C@H](CC(=O)O)NC(=O)CNC(=O)[C@@H](N)Cc1c[nH]cn1)C(=O)N[C@H](Cc1ccccc1)C(=O)N[C@H](C(=O)N[C@H](C(=O)N[C@@H](CC(C)C)C(=O)N[C@@H](CC(=O)O)C(=O)N[C@@H](CC(C)C)C(=O)N[C@@H](CC(C)C)C(=O)N[C@@H](C)C(=O)N[C@@H](C)C(=O)N[C@@H](CCCNC(=N)N)C(=O)N[C@@H](CC(=O)O)C(=O)N[C@@H](Cc1ccccc1)C(=O)N[C@H](C(=O)N[C@@H](CC(N)=O)C(=O)N[C@@H](Cc1c[nH]c2ccccc12)C(=O)N[C@@H](CC(C)C)C(=O)N[C@H](C(=O)N[C@@H](CCC(N)=O)C(=O)N[C@H](C(=O)N[C@@H](CCCCN)C(=O)N[C@H](C(=O)N[C@H](C(=O)N[C@@H](CC(=O)O)C(N)=O)C(C)O)C(C)CC)C(C)O)C(C)CC)C(C)CC)C(C)CC)C(C)O (stereo partly drawn) [apraglutide, L-histidyl-glycyl-L-aspartyl-glycyl-L-seryl-L-phenylalanyl-L-seryl-L-aspartyl-L-glutamyl-L-norleucyl-D-phenylalanyl-L-threonyl-Lisoleucyl-L-leucyl-L-aspartyl-L-leucyl-L-leucyl-L-alanyl-L-alanyl-L-arginyl-L-aspartyl-L-phenylalanyl-L-isoleucyl-L-asparaginyl-Ltryptophanyl-L-leucyl-L-isoleucyl-L-glutaminyl-L-threonyl-L-lysyl-L-isoleucyl-L-threonyl-Laspartic acid amide] (H-HGDGSFSDE[Nle][dF][Thr(3ξ)][Ile(3ξ)]LDLLAARDF[Ile(3ξ)]NWL[Ile(3ξ)]Q[Thr(3ξ)]K[Ile(3ξ)][Thr(3ξ)]D-NH2)
Predicted citrulline change from placebo effect for dose of 1 mg ([1]; Emax model): 0.8535 µg/mL
Predicted citrulline change from placebo effect for dose of 5 mg ([1]; Emax model): 2.2442 µg/mL
Predicted citrulline change from placebo effect for dose of 10 mg ([1]; Emax model): 2.8182 µg/mL
Predicted dose for citrulline change from placebo of 1 μg/mL ([1]; Emax model): 1.2333 mg
Predicted dose for citrulline change from placebo of 2 μg/mL ([1]; Emax model): 3.8471 mg
Predicted dose for citrulline change from placebo of 3 μg/mL ([1]; Emax model): 13.1053 mg
Predicted citrulline change from placebo effect for dose of 1 mg ([1]; Log-linear model): 0.8712 µg/mL
Predicted citrulline change from placebo effect for dose of 5 mg ([1]; Log-linear model): 2.1652 µg/mL
Predicted citrulline change from placebo effect for dose of 10 mg ([1]; Log-linear model): 2.8604 µg/mL
Predicted dose for citrulline change from placebo of 1 μg/mL ([1]; Log-linear model): 1.2249 mg
Predicted dose for citrulline change from placebo of 2 μg/mL ([1]; Log-linear model): 4.2011 mg
Predicted dose for citrulline change from placebo of 3 μg/mL ([1]; Log-linear model): 11.4325 mg
Predicted citrulline change from placebo effect for dose of 1 mg ([1]; Sigmoid Emax model): 0.7125 µg/mL
Predicted citrulline change from placebo effect for dose of 5 mg ([1]; Sigmoid Emax model): 2.3327 µg/mL
Predicted citrulline change from placebo effect for dose of 10 mg ([1]; Sigmoid Emax model): 2.6946 µg/mL
Predicted dose for citrulline change from placebo of 1 μg/mL ([1]; Sigmoid Emax model): 1.3606 mg
Predicted dose for citrulline change from placebo of 2 μg/mL ([1]; Sigmoid Emax model): 3.4042 mg
Predicted dose for citrulline change from placebo of 2.5 μg/mL ([1]; Sigmoid Emax model): 6.4619 mg
MCP step, estimate of the difference ([1]; candidate model Emax with ED50 = 5 mg): 2.2150
MCP step, estimate of the difference ([1]; candidate model Linear): 2.0781
MCP step, estimate of the difference ([1]; candidate model Log-linear): 2.2125
MCP step, estimate of the difference ([1]; candidate model Sigmoid Emax with ED50 = 1 mg and H = 2): 2.1663
MCP step, estimate of the difference ([1]; candidate model Sigmoid Emax with ED50 = 5 mg and H = 5): 2.0713
Safety and tolerability in words (healthy adult volunteers): safe and well-tolerated with no serious AEs
Any related adverse events, number of patients (patients with SBS-IF; 5 mg (N = 8)): 8
Decreased appetite, number of patients (patients with SBS-IF; 5 mg (N = 8)): 1
Edema, number of patients (patients with SBS-IF; 5 mg (N = 8)): 2
Gastrointestinal stoma complication, number of patients (patients with SBS-IF; 5 mg (N = 8)): 5
Gastrointestinal stoma output abnormal, number of patients (patients with SBS-IF; 5 mg (N = 8)): 4
Gastrointestinal stoma output decreased, number of patients (patients with SBS-IF; 5 mg (N = 8)): 3
Increased weight, number of patients (patients with SBS-IF; 5 mg (N = 8)): 1
Polyuria, number of patients (patients with SBS-IF; 5 mg (N = 8)): 4
Stoma complication, number of patients (patients with SBS-IF; 5 mg (N = 8)): 6
Thirst decreased, number of patients (patients with SBS-IF; 5 mg (N = 8)): 3
Injection site reactions, number of patients (patients with SBS-IF; 5 mg dose group): one
Any related adverse events, number of patients (patients with SBS-IF; 10 mg (N = 8)): 8
Decreased appetite, number of patients (patients with SBS-IF; 10 mg (N = 8)): 2
Edema, number of patients (patients with SBS-IF; 10 mg (N = 8)): 2
Gastrointestinal stoma complication, number of patients (patients with SBS-IF; 10 mg (N = 8)): 5
Gastrointestinal stoma output abnormal, number of patients (patients with SBS-IF; 10 mg (N = 8)): 4
Gastrointestinal stoma output decreased, number of patients (patients with SBS-IF; 10 mg (N = 8)): 6
Increased weight, number of patients (patients with SBS-IF; 10 mg (N = 8)): 2
Polyuria, number of patients (patients with SBS-IF; 10 mg (N = 8)): 6
Stoma complication, number of patients (patients with SBS-IF; 10 mg (N = 8)): 6
Thirst decreased, number of patients (patients with SBS-IF; 10 mg (N = 8)): 4
Injection site reactions, number of patients (patients with SBS-IF; 10 mg dose group): three
Safety and tolerability in words (patients with SBS-IF; 5 and 10 mg once weekly for four weeks): well tolerated and safe
Any related adverse events, number of patients (patients with SBS-IF; Total, all periods (N = 8)): 8
Decreased appetite, number of patients (patients with SBS-IF; Total, all periods (N = 8)): 3
Edema, number of patients (patients with SBS-IF; Total, all periods (N = 8)): 4
Gastrointestinal stoma complication, number of patients (patients with SBS-IF; Total, all periods (N = 8)): 5
Gastrointestinal stoma output abnormal, number of patients (patients with SBS-IF; Total, all periods (N = 8)): 5
Gastrointestinal stoma output decreased, number of patients (patients with SBS-IF; Total, all periods (N = 8)): 6
Increased weight, number of patients (patients with SBS-IF; Total, all periods (N = 8)): 3
Polyuria, number of patients (patients with SBS-IF; Total, all periods (N = 8)): 7
Stoma complication, number of patients (patients with SBS-IF; Total, all periods (N = 8)): 6
Thirst decreased, number of patients (patients with SBS-IF; Total, all periods (N = 8)): 5
Deaths (patients with SBS-IF; whole trial): no deaths
Injection site reactions, number of patients (patients with SBS-IF; whole trial): Three
Serious adverse events related to the trial drug (patients with SBS-IF; whole trial): None of these were considered related to the trial drug
Patients reporting serious adverse events (patients with SBS-IF; [2]): 5 patients
Serious adverse events, number of cases (patients with SBS-IF; [2]): 8 cases
